The text below walks through data of article PMC11310889, “Ribosomal translation of fluorinated non-canonical amino acids for de novo biologically active fluorinated macrocyclic peptides” (Chemical Science, 2024).

Format in all cases: cell-based, Escherichia coli
For experiment [1], the system named is E. coli W3110. Description: Evaluation of R9-conjugated macrocyclic peptides against E. coli W3110 (survival, CFU). The following applies: E. coli W3110 logarithmic-phase, 5 μM peptide, 15 min treatment (Fig. 4B). As to the method: the samples were centrifuged at 1000 rpm for 10 min，and take pictures of the pellet after centrifugation. Then, the supernatant from each sample was absorbed into the 96-well plate to ensure that there could be no air bubbles in each hole. The absorbance of the supernatant at the wavelength of 545 nm was measured by microplate reader, and the percentage of hemolysis of each […]
Percentage of hemolysis = 100%OD-OD×
Evaluation of R9-conjugated macrocyclic peptides against Gram-negative pathogens Remove the previously preserved E. coli W3110 cells from the -80 °C refrigerator, scrape a little, inoculate it into 1 mL LB liquid medium, and culture overnight in 37 °C shaker. The strain was inoculated into fresh LB liquid medium according to the inoculation ratio of 1:100 and incubated at 37 ℃ until the OD600 reached about 0.47~0.53. First, 100 μL E. coli W3110 cells was taken, then centrifuged for 2 minutes at 13000 rpm, then the supernatant was absorbed and discarded, and then the cells were resuspended with 100 μL PBS solution, followed by 13000 rpm centrifugation for two minutes. Various fluorinated macrocyclic peptides conjugated with R9 were dissolved in DMSO and then diluted to the required concentration. […] Finally, the plate was scanned and counted. […]

Experiment [2] relates to E. coli W3110. Description: Propidium iodide (PI) assay of membrane permeability. The following applies: E. coli W3110 logarithmic-phase, 15 min treatment with 5 μM peptide, PI 25 μg/mL 15 min (Fig. 5A). The procedure: Propidium Iodide (PI) assay
Thaw the previously preserved E. coli W3110 cells from the -80 °C freezer. Scrape a small amount and inoculate it into 1 mL of LB liquid medium. Culture overnight in a 37°C shaker. Next day, inoculate the strain into fresh LB liquid medium at a 1:100 ratio and incubate at 37 °C until the OD600 reaches approximately 0.47 to 0.53. Take 100 μL of the E. coli W3110 cells and centrifuge for 2 min at 13,000 rpm. Discard the supernatant. For the untreated group, resuspend the cells in 100 μL of PBS. For the peptide treatment group, resuspend the cells in 99 μL of ddH2O and add 1 […]
μL of 0.5 mM of the different peptides. Mix thoroughly and let react for 15 min. After the treatment, take 80 μL of each sample and incubate with PI at a final concentration of 25 μg/mL for 15 min.
After incubation, wash the samples with the same amount of PBS, centrifuge, and resuspend at a 10-fold concentration. Observe the images using a Nikon Eclipse Ci-L Plus microscope. […]
(§1) Incubate overnight in a 37°C shaker. […]
Centrifuge again at
6100g for 10 min, discard the supernatant, and add 500 μL of ddH2O containing 2.5% glutaraldehyde. Resuspend and fix the cells overnight at 4°C. Centrifuge at 6100g for 10 min, remove the supernatant, and wash twice with ddH2O, letting it stand for 15 min each time, followed by centrifugation at 6100g for 10 min. Discard the supernatant. Dehydrate the sample with ethanol at concentration gradients of 30%, 60%, and 90%, without resuspension, centrifuging at 6100g for […]

Experiment [3] deals with E. coli W3110. Description: Protein leakage assay. The following applies: E. coli W3110, 5 μM peptide, 15 min, pellet analysed by SDS-PAGE, compared to R9-treated sample (Fig. S10). The procedure:
Thaw the previously preserved E. coli W3110 cells from the -80 °C freezer. Scrape a small amount and inoculate it into 1 mL of LB liquid medium. Incubate overnight in a 37°C shaker. Next day, transfer the culture to fresh LB liquid medium at a 1:100 inoculation ratio and incubate at 37 °C until the OD600 reaches approximately 0.47 to 0.53. Collect 300 μL of the E. coli W3110 cells and centrifuge for 2 min at 13,000 rpm, discarding the supernatant afterward. Resuspend the untreated group in 300 μL of PBS, and the peptide treatment group in 297 μL of ddH2O. Add 3 μL of 0.5 mM different peptides to the treatment group, mix well, and allow to react for 15 min. After the treatment, resuspend all samples in 15 μL of 6×SDS loading buffer and 15 μL of 10% SDS. All samples were heated at 99.9°C for 15 min, followed by 10% SDS-PAGE analysis and staining with Coomassie brilliant blue R250. […]
as §1

On to “Ac-(4-F-DPhe)IWHKSLT(4-F-DPhe)NYLHTCGS(Acp)RRRRRRRRR-NH2 (sidechain bridge or staple) [BAM-f2-R9, BAM-f2 conjugated with cell-penetrating peptide R9]”, for which the “eradication of E. coli bacteria” value with E. coli W3110 [1] is recorded as “over 99.9%”. The “PI red fluorescence (cell membrane permeability)” value in the experiment on E. coli W3110 [2] was “notable red fluorescence intensity”. The cellular protein leakage entry with E. coli W3110 [3] is “partial cellular protein leakage”.

Take “Ac-(4-F-DPhe)KHFIY(4-F-β-Phe)YRSPICGS(Acp)RRRRRRRRR-NH2 (sidechain bridge or staple) [BAM-β3-R9, BAM-β3 conjugated with cell-penetrating peptide R9]”: the “eradication of E. coli bacteria” value in the experiment with E. coli W3110 [1] is “over 99.9%”. Further, in the experiment with E. coli W3110 [2], the “PI red fluorescence (cell membrane permeability)” value is “notable red fluorescence intensity”. In addition, the cellular protein leakage result with E. coli W3110 [3] is listed as “partial cellular protein leakage”.
